Assay results as given in US20230014907A1, “INHIBITORS OF APOL1 AND METHODS OF USING SAME” (Vertex Pharmaceuticals Incorporated, priority 2020, published 2023).
Where two headings read alike, the source gives them in different places.

Target: T1, G1 APOL1 (Homo sapiens, UniProt O14791, I384M/S342G)
T1 construct: expressed in transfected cells
T1 sequence (O14791 28-398 S342G/I384M): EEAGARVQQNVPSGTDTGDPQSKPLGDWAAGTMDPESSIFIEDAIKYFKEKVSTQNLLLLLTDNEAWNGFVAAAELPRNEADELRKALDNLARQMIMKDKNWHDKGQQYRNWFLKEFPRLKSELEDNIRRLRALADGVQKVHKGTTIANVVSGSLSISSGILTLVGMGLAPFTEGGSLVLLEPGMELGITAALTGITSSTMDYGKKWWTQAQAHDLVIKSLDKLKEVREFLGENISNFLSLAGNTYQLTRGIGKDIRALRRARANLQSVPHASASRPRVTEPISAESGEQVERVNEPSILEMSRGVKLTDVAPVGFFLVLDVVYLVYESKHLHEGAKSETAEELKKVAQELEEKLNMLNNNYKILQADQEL
Assay: Acute APOL1 Thallium Assay with Inducible Stable Clones of HEK 293 Cells
Format: cell-based
In short: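 Pore activity was read as the fluorescence increase from Tl+ entering cells loaded with an AM-ester thallium indicator dye. The cells were tetracycline-inducible HEK293 T-Rex expressing G1 APOL1 (clone DC3.25), induced when plated at 26000 per well and incubated at 37° C.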

[1] = HEK 293 inducible stable clones, G1 APOL1, read-out: Thallium Assay (IC50)

SMILES | IC50 [1] | IC50
CC(C)(C)OC(=O)NCC(=O)NCCc1c(-c2ccc(F)cc2)[nH]c2c(F)cc(F)cc12 [Compound 317] | > 1000 nM | –
OC1(CC#Cc2c(-c3ccc(F)cc3)[nH]c3c(F)cc(F)cc23)CCC1 [Compound 525, 1-[3-[5,7-difluoro-2-(4-fluorophenyl)-1H-indol-3-yl]prop-2-ynyl]cyclobutanol] | > 1000 nM | –
O=C(NCC1CCOC1)OCCc1c(-c2ccc(F)cc2)[nH]c2c(F)cc(F)cc12 (stereo not drawn) [Compound 491] | > 1000 nM | –
CNCCc1c(-c2ccc(F)cc2)[nH]c2c(F)cc(F)cc12 [Compound 428, 2-[5,7-difluoro-2-(4-fluorophenyl)-1H-indol-3-yl]-N-methyl-ethanamine] | > 1000 nM | –
CN(C)CCc1c(-c2ccc(F)cc2)[nH]c2c(F)cc(F)cc12 [Compound 429, 2-[5,7-difluoro-2-(4-fluorophenyl)-1H-indol-3-yl]-N,N-dimethyl-ethanamine] | – | > 1000 nM
Cc1cc(CNC(=O)OCCc2c(-c3ccc(F)cc3)[nH]c3c(F)cc(F)cc23)on1 [Compound 492] | > 1000 nM | –
O=C(NCCc1c(-c2ccc(F)cc2)[nH]c2c(F)cc(F)cc12)N1CCC[C@H]1CO [Compound 296] | > 1000 nM | –
O=C(NCCc1c(-c2ccc(F)cc2)[nH]c2c(F)cc(F)cc12)NCC1CCOCC1 [Compound 291] | > 1000 nM | –
O=C(NCCc1ccncc1)NCCc1c(-c2ccc(F)cc2)[nH]c2c(F)cc(F)cc12 [Compound 288] | > 1000 nM | –
COc1ccc2[nH]c(-c3ccc(F)cc3)c(CCNC(=O)OC(C)(C)C)c2c1 [Compound 430, tert-butyl N-[2-[2-(4-fluorophenyl)-5-methoxy-1H-indol-3-yl]ethyl]carbamate] | > 1000 nM | –
O=C(Cn1cccc1)NCCc1c(-c2ccc(F)cc2)[nH]c2c(F)cc(F)cc12 [Compound 395] | > 1000 nM | –
O=C1CC(C(=O)NCCc2c(-c3ccc(F)cc3)[nH]c3c(F)cc(F)cc23)NC(=O)N1 (stereo not drawn) [Compound 309] | > 1000 nM | –
CNC(=O)C(=O)NCCc1c(-c2ccc(F)cc2)[nH]c2c(F)cc(F)cc12 [Compound 359] | > 1000 nM | –
O=C(/C=C/c1c(-c2ccc(F)cc2)[nH]c2c(F)ccc(F)c12)N[C@H]1CCNC1=O [Compound 520, (E)-3-[4,7-difluoro-2-(4-fluorophenyl)-1H-indol-3-yl]-N-[(3S)-2-oxopyrrolidin-3-yl]prop-2-enamide] | > 1000 nM | –
O=C1CC(NC(=O)CCCc2c(-c3ccc(F)cc3)[nH]c3c(F)cc(F)cc23)CN1 (stereo not drawn) [Compound 253] | > 1000 nM | –
CC1(O)CC(NC(=O)OCCc2c(-c3ccc(F)cc3)[nH]c3c(F)cc(F)cc23)C1 (mixture of isomers) [Compound 495] | > 1000 nM | –

SMILES | IC50 [1] | IC50
NC(=O)CCC(=O)NCCc1c(-c2ccc(F)cc2)[nH]c2c(F)cc(F)cc12 [Compound 343] | > 1000 nM | –
C[C@H](NC(=O)NCCc1c(-c2ccc(F)cc2)[nH]c2c(F)cc(F)cc12)C(C)(C)O [Compound 268] | > 1000 nM | –
CS(=O)(=O)NCC(=O)NCCc1c(-c2ccc(F)cc2)[nH]c2c(F)cc(F)cc12 [Compound 321] | > 1000 nM | –
O=S(=O)(NCCc1c(-c2ccc(F)cc2)[nH]c2c(F)cc(F)cc12)C1CCOCC1 [Compound 423] | > 1000 nM | –
O=C(NC[C@@H](O)CO)OCCc1c(-c2ccc(F)cc2)[nH]c2c(F)cc(F)cc12 [Compound 476] | > 1000 nM | –
Nc1ncc(C(=O)NCCc2c(-c3ccc(F)cc3)[nH]c3c(F)cc(F)cc23)s1 [Compound 328] | > 1000 nM | –
O=C(NCc1cccnc1)OCCc1c(-c2ccc(F)cc2)[nH]c2c(F)cc(F)cc12 [Compound 497] | > 1000 nM | –
O=C(CCc1c(-c2ccc(F)cc2)[nH]c2c(F)cc(Cl)cc12)N[C@H](CO)C(F)(F)F [Compound 205] | > 1000 nM | –
O=C1C[C@@H](NC(=O)CCCc2c(-c3ccc(F)cc3)[nH]c3c(F)cc(F)cc23)C(=O)N1 [Compound 242] | > 1000 nM | –
O=C(NCCc1c(-c2ccc(F)cc2)[nH]c2c(F)cc(F)cc12)c1cccnc1 [Compound 401] | > 1000 nM | –
O=C(NCCc1c(-c2ccc(F)cc2)[nH]c2c(F)cc(F)cc12)c1ccc[nH]1 [Compound 354] | > 1000 nM | –
Cn1cc(CNC(=O)OCCc2c(-c3ccc(F)cc3)[nH]c3c(F)cc(F)cc23)nn1 [Compound 490] | > 1000 nM | –
O=C(NCCc1c(-c2ccc(F)cc2)[nH]c2c(F)cc(F)cc12)C1COC1 [Compound 413] | > 1000 nM | –
O=C(NCCc1c(-c2ccc(F)cc2)[nH]c2c(F)cc(F)cc12)NCc1cccc(O)c1 [Compound 264] | > 1000 nM | –
O=C(NCCc1c(-c2ccc(F)cc2)[nH]c2c(F)cc(F)cc12)NCC1(CO)CC1 [Compound 276] | > 1000 nM | –

Continued, in another order:

IC50 [1] | SMILES | IC50
> 1000 nM | O=C1NCCCC1C(=O)NCCc1c(-c2ccc(F)cc2)[nH]c2c(F)cc(F)cc12 (stereo not drawn) [Compound 330] | –
< 250 nM | Cc1cc(F)c2[nH]c(-c3ccc(F)cc3)c(CCC(=O)N[C@@H](CO)C(F)(F)F)c2c1 [Compound 214] | –
> 1000 nM | CN1CC(NC(=O)OCCc2c(-c3ccc(F)cc3)[nH]c3c(F)cc(F)cc23)CC1=O (stereo not drawn) [Compound 494] | –
> 1000 nM | COCC1(CNC(=O)NCCc2c(-c3ccc(F)cc3)[nH]c3c(F)cc(F)cc23)CC1 [Compound 292] | –
> 1000 nM | O=C(NCCc1c(-c2ccc(F)cc2)[nH]c2c(F)cc(F)cc12)NCC1(O)CCCC1 [Compound 266] | –
250 to 1000 nM | O=C(NCCc1c(-c2ccc(F)cc2)[nH]c2c(F)cc(F)cc12)N[C@@H](CO)C(F)(F)F [Compound 261] | –
> 1000 nM | NC(=O)CC(=O)NCCc1c(-c2ccc(F)cc2)[nH]c2c(F)cc(F)cc12 [Compound 358] | –
> 1000 nM | O=C1CC(C(=O)NCCc2c(-c3ccc(F)cc3)[nH]c3c(F)cc(F)cc23)CC(=O)N1 [Compound 320] | –
> 1000 nM | O=C(CCc1c(-c2ccc(F)cc2)[nH]c2c(F)cc(Cl)cc12)NC[C@@H](O)CO [Compound 210] | –
> 1000 nM | O=C(NCCc1c(-c2ccc(F)cc2)[nH]c2c(F)cc(F)cc12)c1cn[nH]c1 [Compound 352] | –
> 1000 nM | Cn1ccc(C(=O)NCCc2c(-c3ccc(F)cc3)[nH]c3c(F)cc(F)cc23)n1 [Compound 390] | –
> 1000 nM | O=C(NCCc1c(-c2ccc(F)cc2)[nH]c2c(F)cc(F)cc12)c1cc(C(F)(F)F)n[nH]1 [Compound 315] | –
> 1000 nM | O=C(NCCc1c(-c2ccc(F)cc2)[nH]c2c(F)cc(F)cc12)[C@H]1CC[C@H](O)CC1 [Compound 325] | –
250 to 1000 nM | O=C(CCc1c(-c2ccc(F)cc2)[nH]c2c(F)cc(Cl)cc12)NC(CO)CO [Compound 212] | –
250 to 1000 nM | NC1(C(=O)NCCc2c(-c3ccc(F)cc3)[nH]c3c(F)cc(F)cc23)CCC1 [Compound 349] | –
250 to 1000 nM | O=C(NCCc1c(-c2ccc(F)cc2)[nH]c2c(F)cc(F)cc12)NC(CO)CF (stereo not drawn) [Compound 259, 1-[2-[5,7-difluoro-2-(4-fluorophenyl)-1H-indol-3-yl]ethyl]-3-[1-(fluoromethyl)-2-hydroxy-ethyl]urea] | –

IC50 [1] | SMILES | IC50
< 250 nM | O=C(CCc1c(-c2ccc(F)cc2)[nH]c2c(Cl)cccc12)N[C@@H](CO)C(F)F [Compound 231, 3-[7-chloro-2-(4-fluorophenyl)-1H-indol-3-yl]-N-[(1S)-2,2-difluoro-1-(hydroxymethyl)ethyl]propanamide] | –
< 250 nM | CC(CO)(CO)NC(=O)OCCc1c(-c2ccc(F)cc2)[nH]c2c(F)cc(F)cc12 [Compound 434, 2-[5,7-difluoro-2-(4-fluorophenyl)-1H-indol-3-yl]ethyl N-[2-hydroxy-1-(hydroxymethyl)-1-methyl-ethyl]carbamate] | –
< 250 nM | O=C(NC(CO)C1CC1)OCCc1c(-c2ccc(F)cc2)[nH]c2c(F)cc(F)cc12 (stereo not drawn) [Compound 451] | –
< 250 nM | CC(CC#N)NC(=O)NCCc1c(-c2ccc(F)cc2)[nH]c2c(F)cc(F)cc12 (racemic) [Compound 301] | –
< 250 nM | O=C(N[C@@H]1CCNC1=O)OCCc1c(-c2ccc(F)cc2)[nH]c2c(F)cc(F)cc12 [Compound 448] | –
250 to 1000 nM | O=C(NCCc1c(-c2ccc(F)cc2)[nH]c2c(F)cc(F)cc12)c1c[nH]cn1 [Compound 353] | –
< 250 nM | COC[C@H](C)NC(=O)OCCc1c(-c2ccc(F)cc2)[nH]c2c(F)cc(F)cc12 [Compound 444] | –
250 to 1000 nM | N#CC(NC(=O)CCc1c(-c2ccc(F)cc2)[nH]c2c(F)cc(F)cc12)C(N)=O (stereo not drawn) [Compound 127] | –
< 250 nM | NC(=O)CNC(=O)OCCc1c(-c2ccc(F)cc2)[nH]c2c(F)cc(F)cc12 [Compound 452] | –
< 250 nM | O=C(CCc1c(-c2ccc(F)cc2)[nH]c2c(F)cc(Cl)cc12)N[C@@H](CO)C(F)(F)F [Compound 207] | –
250 to 1000 nM | CC(CO)(CO)NC(=O)CCc1c(-c2ccc(F)cc2)[nH]c2c(F)cc(Cl)cc12 [Compound 197] | –
250 to 1000 nM | O=C(CCc1c(-c2ccc(F)cc2)[nH]c2c(F)cc(Cl)cc12)NC(CO)CF (stereo not drawn) [Compound 196] | –
250 to 1000 nM | N#CC(CO)NC(=O)CCc1c(-c2ccc(F)cc2)[nH]c2c(F)cc(Cl)cc12 (stereo not drawn) [Compound 198] | –
250 to 1000 nM | O=C(N[C@H]1COC[C@@H]1O)OCCc1c(-c2ccc(F)cc2)[nH]c2c(F)cc(F)cc12 [Compound 474] | –
250 to 1000 nM | CC(C)C(CO)NC(=O)OCCc1c(-c2ccc(F)cc2)[nH]c2c(F)cc(F)cc12 (stereo not drawn) [Compound 467] | –
250 to 1000 nM | O=C(NCCc1c(-c2ccc(F)cc2)[nH]c2c(F)cc(F)cc12)C(O)C(F)(F)F (stereo not drawn) [Compound 327] | –
